“Also recorded” adds a separate entry of the source.
What was measured:
[1] = tested on: IL-8 secretion in 3D PHH:NPC spheroids; assay: IL-8 secretion (Luminex) by 3D PHH:NPC NASH spheroids; format: cell-based, human; details: across 1-10 μM, NASH medium
Experimental: (§1) Experiments were conducted using HepaPredict's (HepaPredict AB, Sweden) 3D primary human hepatocyte (PHH) spheroid NASH model (e.g. as published in Bell et al. Sci Rep. 2016 May 4; 6:25187. doi: 10.1038/srep25187).
Cryopreserved primary human hepatocytes were obtained from BioIVT (USA) and nonparenchymal cells (NPC) from LifeNetHealth (USA). After thawing, PHH-NPC cocultures were seeded in a multi-well 96-well Elplasia plate (Corning) in William's E medium containing 11 mM glucose, 10 μg/mL (control) or 10 mg/mL insulin (NASH), 100 nM dexamethasone, 5.5 mg/L transferrin, 6.7 μg/L selenite, 2 mM L-glutamine, 1 U/mL penicillin, 0.1 mg/mL streptomycin, and 10% fetal bovine serum (FBS). […]
After spheroid formation, cells were exposed to up to five different concentrations of the candidate molecules HK1 or HK3 (0.1 μM, 0.3 μM, 1 μM, 3 μM, and 10 μM) with or without FFA in the culture medium. […] All endpoints were evaluated after 14 days of exposure. […]
Secreted cytokines (IL-6 and IL-8) were measured in culture supernatants using a customized Magnetic Luminex Performance Assay (Human Cytokine Panel A, R&D Systems). […] The fluorescence intensity was measured using a Bio-Plex 200 system (Bio-Rad), the median fluorescence intensity of each analyte was analyzed with the Bio-Plex Manage software (version 6.2) using a 5-parameter regression algorithm. […]

[2] = tested on: IL-6 secretion in 3D PHH:NPC spheroids; assay: IL-6 secretion (Luminex) by 3D PHH:NPC NASH spheroids; format: cell-based, human; details: for IL-6 levels compared to NASH: NASH medium
Experimental: as §1
Cryopreserved primary human hepatocytes were obtained from BioIVT (USA) and nonparenchymal cells (NPC) from LifeNetHealth (USA). After thawing, PHH-NPC cocultures were seeded in a multi-well 96-well Elplasia plate (Corning) in William's E medium containing 11 mM glucose, 10 μg/mL (control) or 10 mg/mL insulin (NASH), 100 nM dexamethasone, 5.5 mg/L transferrin, 6.7 μg/L selenite, 2 mM L-glutamine, 1 U/mL penicillin, 0.1 mg/mL streptomycin, and 10% fetal bovine serum (FBS). PHH-NPC cocultures were seeded in ratio of 6:1 PHH:NPC with a total of 40,000 PHH per well. When spheroids were formed, FBS was phased out and spheroids were maintained in either the same media to provide the negative control (“Ctrl”), or with addition of albumin-conjugated free fatty acid (FFA), comprised of 240 μM palmitic acid and 240 μM oleic acid (NASH medium) to provide the positive control (“NASH”). Compound exposure was conducted in NASH medium with medium exchanges every 48-72 hours.
After spheroid formation, cells were exposed to up to five different concentrations of the candidate molecules HK1 or HK3 (0.1 μM, 0.3 μM, 1 μM, 3 μM, and 10 μM) with or without FFA in the culture medium. All compound stocks and dilutions were prepared in DMSO, aliquoted and stored protected from light at −20° C. Fresh dosing solutions were prepared from these aliquots on each dosing day. All endpoints were evaluated after 14 days of exposure.
For statistical comparisons, normalized values for a given condition were compared to either the corresponding vehicle (DMSO) controls or the respective FFA (NASH) controls at the same time point using heteroscedastic unpaired two-tailed t-tests.
Secreted cytokines (IL-6 and IL-8) were measured in culture supernatants using a customized Magnetic Luminex Performance Assay (Human Cytokine Panel A, R&D Systems). The multiplexed assay was performed following the manufacturer's instructions. Standard curves were generated by resuspending the human recombinant cytokines mixture at concentrations ranging from […] with 8 points at 1:3 series dilution for the customized selection of […], IL-6 and IL-8/CXCL8. […] The fluorescence intensity was measured using a Bio-Plex 200 system (Bio-Rad), the median fluorescence intensity of each analyte was analyzed with the Bio-Plex Manage software (version 6.2) using a 5-parameter regression algorithm. […]
To assess the effect of the two candidate compounds HK1 and HK3 on hepatic inflammation, we measured levels of the pro-inflammatory cytokines IL-6 and IL-8.

## Cc1cc(NC(=S)/C(C#N)=C(\O)C2CC2)ccc1[N+](=O)[O-] [HK3, 2-Cyano-3-cyclopropyl-3-hydroxy-N-(3-methyl-4-nitro-phenyl)-thioacrylamide]
[1]
  IL-8 levels compared to NASH: 80-91%
[2]; 1 μM
  IL-6 levels compared to NASH: 73%
[2]; 3 μM
  IL-6 levels compared to NASH: 55%
[2]; 10 μM
  IL-6 levels compared to NASH: 72%
[2]; NASH spheroids, 1-10 μM
  IL-6 secretion, effect in words: slight decrease; also recorded: stronger decrease
